Patent US6566580B1, “Neurological disease model” (priority 1996, dated 2003)
“And” between values parts separate entries of the source, which are not always exact repeats. Equal values may be shown once.

Experiments:
mGlu7 = mGlu7 (Rattus norvegicus, UniProt P35400); conditions: high concentrations of L-AP4, e.g. 1 mM, recombinant systems; cited from earlier work
[1] = test system: synaptic transmission in the Schaffer collateral-commissural pathway; assay: L-AP4 depression of synaptic transmission, field EPSP recordings in hippocampal CA1 slices; type: cell-based, mice; conditions: L-AP4 1 mM
Experimental: To investigate the possible functions of mGlu7 electrophysiological experiments are performed in the CA1 region of the hippocampus, a region rich in mGlu7. […] L-AP4 (1 mM) is therefore applied to wild-type and mGlu7^−/− mice. […] However, all three patterns are seen in both wild-type and mutant mice. On average there is no significance difference in the actions of L-AP4 between groups; the peak L-AP4 induced depressions for wild-type and mutant mice are 40±10% (n=15) and 33±10% (n=14), respectively (P>0.05). Furthermore, no statistically significant differences are seen in intrinsic or synaptic properties between wild-type and mutant mice. Also, paired-pulse facilitation is similar between both groups. Thus, the facilitation ratio obtained, using an interpulse interval of 50 ms, is 1.49±0.03 and 1.45±0.04 for wild-type (n=9) and mutant (n=9) mice, respectively (P>0.05).
Since certain members of the mGlu family have been implicated in the generation of LTP in area CA1, the ability of wild-type and mutant mice to support this form of synaptic plasticity is compared as follows. […]
There are no apparent differences in low frequency synaptic transmission between the two groups of mice. […] Statistical significance is determined using a repeated measures ANOVA test and unpaired Students t-tests. […]

[2] = test system: synaptic transmission in the Schaffer collateral-commissural pathway; conditions: 1 mM L-AP4, Schaffer collateral-commissural pathway, literature; cited from earlier work
[3] = test system: mice (mGluR7 -/-, +/-, +/+); assay: Pentylenetetrazol (PTZ)-induced seizures in mGluR7 knockout, heterozygote and wild-type mice; type: in vivo; conditions: PTZ 40 mg/kg i.p.
Experimental: Intraperitoneal (i.p.) injection of a normally subconvulsive dose of PTZ (40 mg/kg) induced seizures in 9 out of 9 homozygous mGluR7 knockout mice (age 9 months) as shown in the Table below.
This sensitivity to a subconvulsive dose of PTZ is not yet evident at age 6 weeks but clearly evident at age 10 weeks in mGluR7 homozygous but not in heterozygous littermates as shown in the table below.

mice (mGluR7 -/-, +/-) = assay: EEG recording with surface electrodes before and after PTZ injection; type: in vivo; conditions: PTZ 40 mg/kg
Experimental: In addition, two mGluR7−/− and two mGluR7+/− mice were equipped with surface electrodes to record EEGs before and after injection of 40 mg/kg PTZ.

mGlu7, sequence (P35400 35-915): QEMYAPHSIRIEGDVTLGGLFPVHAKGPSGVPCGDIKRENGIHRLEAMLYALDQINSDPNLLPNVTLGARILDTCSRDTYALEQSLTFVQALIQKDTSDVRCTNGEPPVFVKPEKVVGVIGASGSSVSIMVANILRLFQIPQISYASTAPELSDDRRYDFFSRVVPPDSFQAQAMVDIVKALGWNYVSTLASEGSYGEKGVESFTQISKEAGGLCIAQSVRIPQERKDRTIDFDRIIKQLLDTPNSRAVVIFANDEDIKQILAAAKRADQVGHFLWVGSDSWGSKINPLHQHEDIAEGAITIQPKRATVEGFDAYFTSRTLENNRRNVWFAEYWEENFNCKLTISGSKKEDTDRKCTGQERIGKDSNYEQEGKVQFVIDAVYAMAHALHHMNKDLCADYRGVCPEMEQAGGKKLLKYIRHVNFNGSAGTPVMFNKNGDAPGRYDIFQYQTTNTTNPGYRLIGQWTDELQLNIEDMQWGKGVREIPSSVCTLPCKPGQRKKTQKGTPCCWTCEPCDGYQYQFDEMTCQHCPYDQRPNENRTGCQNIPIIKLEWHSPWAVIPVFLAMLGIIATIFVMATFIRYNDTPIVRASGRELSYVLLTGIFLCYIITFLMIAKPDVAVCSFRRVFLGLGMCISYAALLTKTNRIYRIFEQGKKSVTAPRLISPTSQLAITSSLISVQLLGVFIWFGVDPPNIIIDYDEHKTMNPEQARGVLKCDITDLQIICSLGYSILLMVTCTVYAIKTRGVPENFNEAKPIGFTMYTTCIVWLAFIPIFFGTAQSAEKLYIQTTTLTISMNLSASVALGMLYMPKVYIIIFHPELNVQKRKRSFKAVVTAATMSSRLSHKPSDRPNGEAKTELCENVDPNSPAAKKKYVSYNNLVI

Row | Compound | activation of mGlu7 (mGlu7) | peak L-AP4 induced depression ([1]; mutant (mGlu7 -/-) mice, n=14) | peak L-AP4 induced depression ([1]; wild-type mice, n=15) | effect on synaptic transmission [2] | mice with induced seizures ([3]; homozygous mGluR7 knockout mice, age 9 months) | Clonic activity ([3]; mGluR7 +/- heterozygote mice, per animal) | mice with clonic seizures ([3]; mGluR7+/- mice) | Clonic activity ([3]; mGluR7 -/- mice, age 6 weeks, per animal) | Clonic activity ([3]; mGluR7 -/- mice, age 10 weeks, per animal) | Clonic activity ([3]; mGluR7 -/- mice, per animal) | Exitus ([3]; mGluR7 -/- mice, per animal) | Tonic activity ([3]; mGluR7 -/- mice, per animal) | mice with induced seizures ([3]; wild type mice (mGluR7+/+)) | seizures following injection ([3]; wild type non-transgenic mice tested in parallel with the 6 and 10 week experiments) | EEG after PTZ injection (mice (mGluR7 -/-, +/-); homozygous mGluR7 knockout mice) | EEG after PTZ injection (mice (mGluR7 -/-, +/-); mGluR7+/- mice)
1 | N[C@@H](CCP(=O)(O)O)C(=O)O [L-AP4, (S)-2-amino-4-phosphonobutanoate] | can activate mGlu7 | 33±10% | 40±10% | can depress synaptic transmission | – | – | – | – | – | – | – | – | – | – | – | –
2 | C1CCc2nnnn2CC1 [PTZ, Pentylenetetrazol] | – | – | – | – | 9 out of 9 | 3′ | 1 out of 9 | 6′ | 2′ (2×) and 4′ (4×) | 2′ and 15′ | 4′ (2×) and 12′ and 11′ and 6′ | 3′ (2×) and 12′ and 2′ and 4′ and 6′ | None of 9 | no seizures | typical signals reminiscent of seizure activity | no such activity developed
